In patent US20110105474A1, “HETEROCYCLIC DERIVATIVES AS HDAC INHIBITORS” (DAC S.r.l., priority 2008, published 2011):
pIC50: −log10 of the molar value. Counter-ions that a name gives are not always drawn.

Columns and labels:
Type in all cases: cell-based
K562 cells = test: Cell growth, CellTiter-Glo Luminescent Cell Viability Assay, K562; settings: Homo sapiens, 72 h incubation
Description: (§1) CellTiter-Glo® Luminescent Cell Viability Assay (Promega) is a homogeneous method of determining the number of viable cells in culture based on quantitation of the present ATP, which indicates the presence of metabolically active cells. The homogeneous assay procedure involves addition of a single reagent (CellTiter-Glo®Reagent) directly to the cells, which leads to cell lysis and generation of a luminescent signal proportional to the amount of the ATP and the number of cells present in culture. The assay relies on the properties of a proprietary thermostable luciferase (Ultra-Glo® recombinant luciferase), which generates a luminescent signal.
(§2) K562, A549 and HCT-116 cells, in exponential growth, were incubated for 72 h with different concentrations of the inhibitors. After 72 h, a volume of CellTiter-Glo® Reagent equal to the volume of cell culture medium was added. The content was mixed for 2 min to induce cell lysis. The luminescence was recorded after further 10 min at RT in order to obtain a stabilized luminescent signal.
(§3) The IC50 was calculated using GraphPad Software.
(§4) IC50 results were allocated to one of 3 ranges as follows: Range A: IC50≦1.0 μM; Range B: from 1.0 to 3.0 μM; Range C: IC50≧3.0 μM.

A549 cells = test: Cell growth, CellTiter-Glo Luminescent Cell Viability Assay, A549; settings: Homo sapiens, 72 h incubation
Description: as §1, §2, §3, §4

HCT-116 cells = test: Cell growth, CellTiter-Glo Luminescent Cell Viability Assay, HCT-116; settings: Homo sapiens, 72 h incubation, read-out: IC50 HCT116
Description: as §1, §2, §3, §4

| Structure (SMILES) | pIC50 (K562 cells) | pIC50 (A549 cells) | pIC50 (HCT-116 cells) |
| --- | --- | --- | --- |
| O=C(/C=C/c1cccc(/C=C/C(=O)N2CCN(c3ccc(OCc4ccccc4)cc3)CC2)n1)NO [Example 39, (E)-3-(6-{(E)-3-[4-(4-Benzyloxy-phenyl)-piperazin-1-yl]-3-oxo-propenyl}-pyridin-2-yl)-N-hydroxy-acrylamide hydrochloride] | 5.52 to 6.00 | ≤ 5.52 | 5.52 to 6.00 |
| O=C(/C=C/c1cccc(/C=C/C(=O)N2CCc3[nH]c4ccccc4c3C2)n1)NO [Example 45, (E)-N-Hydroxy-3-{6-[(E)-3-oxo-3-(1,3,4,5-tetrahydro-pyrido[4,3-b]indol-2-yl)-propenyl]-pyridin-2-yl}-acrylamide hydrochloride] | 5.52 to 6.00 | ≤ 5.52 | 5.52 to 6.00 |
| O=C(/C=C/c1cccc(/C=C/C(=O)N2CCc3c([nH]c4ccccc34)C2)n1)NO [Example 56, (E)-N-Hydroxy-3-{6-[(E)-3-oxo-3-(1,3,4,9-tetrahydro-beta-carbolin-2-yl)-propenyl]-pyridin-2-yl}-acrylamide hydrochloride] | 5.52 to 6.00 | ≤ 5.52 | 5.52 to 6.00 |
| O=C(/C=C/c1cccc(/C=C/C(=O)N2CCC(c3nc4ccccc4o3)CC2)n1)NO [Example 57, (E)-3-{6-[(E)-3-(4-Benzooxazol-2-yl-piperidin-1-yl)-3-oxo-propenyl]-pyridin-2-yl}-N-hydroxy-acrylamide hydrochloride] | ≤ 5.52 | ≤ 5.52 | 5.52 to 6.00 |
| O=C(/C=C/c1cccc(/C=C/C(=O)N2CCC(c3nc4ccccc4[nH]3)CC2)n1)NO [Example 59, (E)-3-(6-{(E)-3-[4-(1H-Benzoimidazol-2-yl)-piperidin-1-yl]-3-oxo-propenyl}-pyridin-2-yl)-N-hydroxy-acrylamide hydrochloride] | ≤ 5.52 | ≤ 5.52 | ≤ 5.52 |
| O=C(/C=C/c1cccc(/C=C/C(=O)N2CCC3(C=Cc4ccccc43)CC2)n1)NO [Example 60, (E)-3-(6-{(E)-3-[Spiro[indene-1,4′-piperidine-1′-yl]-3-oxo-propenyl}-pyridin-2-yl)-N-hydroxy-acrylamide hydrochloride] | ≥ 6.00 | ≤ 5.52 | 5.52 to 6.00 |
| O=C(/C=C/c1cccc(/C=C/C(=O)N2CCC3(CC2)OCc2ccccc23)n1)NO [Example 61, (E)-3-(6-{(E)-3-[Spiro[2-benzofuran-1,4′-piperidine-1′-yl]-3-oxo-propenyl}-pyridin-2-yl)-N-hydroxy-acrylamide hydrochloride] | ≥ 6.00 | 5.52 to 6.00 | ≥ 6.00 |
| O=C(/C=C/c1cccc(/C=C/C(=O)N2CCC(n3c(-c4ccccc4)nc4ccccc43)CC2)n1)NO [Example 62, (E)-N-Hydroxy-3-(6-{(E)-3-oxo-3-[4-(2-phenyl-benzoimidazol-1-yl)-piperidin-1-yl]-propenyl}-pyridin-2-yl)-acrylamide hydrochloride] | ≤ 5.52 | ≤ 5.52 | ≤ 5.52 |
| O=C(/C=C/c1cccc(/C=C/C(=O)N2CC=C(c3ccccc3)CC2)c1)NO [Example 75, (E)-N-Hydroxy-3-{3-[(E)-3-oxo-3-(4-phenyl-3,6-dihydro-2H-pyridin-1-yl)-propenyl]-phenyl}-acrylamide] | 5.52 to 6.00 | 5.52 to 6.00 | ≥ 6.00 |
| O=C(/C=C/c1cccc(/C=C/C(=O)N2CCN(c3ccc(Cl)cc3)CC2)c1)NO [Example 76, (E)-3-(3-{(E)-3-[4-(4-Chloro-phenyl)-piperazin-1-yl]-3-oxo-propenyl}-phenyl)-N-hydroxy-acrylamide hydrochloride] | ≥ 6.00 | ≥ 6.00 | ≥ 6.00 |
| O=C(/C=C/c1cccc(/C=C/C(=O)N2CCC(C(=O)c3ccccc3)CC2)c1)NO [Example 77, (E)-3-{3-[(E)-3-(4-Benzoyl-piperidin-1-yl)-3-oxo-propenyl]phenyl}-N-hydroxy-acrylamide] | 5.52 to 6.00 | ≤ 5.52 | 5.52 to 6.00 |
| O=C(/C=C/c1cccc(/C=C/C(=O)N2CCC[C@H](c3ccccc3)C2)c1)NO [Example 81, (E)-N-Hydroxy-3-{3-[(E)-3-oxo-3-((R)-3-phenyl-piperidin-1-yl)-propenyl]-phenyl}acrylamide] | ≤ 5.52 | ≤ 5.52 | ≤ 5.52 |

Results, then the molecule that gave them:

| pIC50 (K562 cells) | pIC50 (A549 cells) | pIC50 (HCT-116 cells) | Structure (SMILES) |
| --- | --- | --- | --- |
| 5.52 to 6.00 | 5.52 to 6.00 | ≥ 6.00 | COc1ccc(N2CCN(C(=O)/C=C/c3cccc(/C=C/C(=O)NO)n3)CC2)cc1 [Example 34, (E)-N-Hydroxy-3-(6-{(E)-3-[4-(4-methoxy-phenyl)-piperazin-1-yl]-3-oxo-propenyl}-pyridin-2-yl)-acrylamide hydrochloride] |
| 5.52 to 6.00 | ≥ 6.00 | ≥ 6.00 | O=C(/C=C/c1cccc(/C=C/C(=O)N2CCN(c3ccc(C(F)(F)F)cc3)CC2)n1)NO [Example 35, (E)-N-Hydroxy-3-(6-{(E)-3-oxo-3-[4-(4-trifluoromethyl-phenyl)-piperazin-1-yl]-propenyl}-pyridin-2-yl)-acrylamide hydrochloride] |
| ≤ 5.52 | ≤ 5.52 | ≤ 5.52 | N#Cc1ccc(N2CCN(C(=O)/C=C/c3cccc(/C=C/C(=O)NO)n3)CC2)cc1 [Example 36, (E)-3-(6-{(E)-3-[4-(4-Cyano-phenyl)-piperazin-1-yl]-3-oxo-propenyl}-pyridin-2-yl)-N-hydroxy-acrylamide hydrochloride] |
| 5.52 to 6.00 | 5.52 to 6.00 | ≥ 6.00 | O=C(/C=C/c1cccc(/C=C/C(=O)N2CCN(c3ccc(F)cc3)CC2)n1)NO [Example 37, (E)-3-(6-{(E)-3-[4-(4-Fluoro-phenyl)-piperazin-1-yl]-3-oxo-propenyl}-pyridin-2-yl)-N-hydroxy-acrylamide hydrochloride] |
| ≥ 6.00 | ≥ 6.00 | ≥ 6.00 | O=C(/C=C/c1cccc(/C=C/C(=O)N2CCN(c3ccc(Br)cc3)CC2)n1)NO [Example 38, (E)-3-(6-{(E)-3-[4-(4-Bromo-phenyl)-piperazin-1-yl]-3-oxo-propenyl}-pyridin-2-yl)-N-hydroxy-acrylamide hydrochloride] |
| ≤ 5.52 | ≤ 5.52 | ≤ 5.52 | O=C(/C=C/c1cccc(/C=C/C(=O)N2CCN(c3ccncc3)CC2)n1)NO [Example 40, (E)-N-Hydroxy-3-{6-[(E)-3-oxo-3-(4-pyridin-4-yl-piperazin-1-yl)-propenyl]-pyridin-2-yl}-acrylamide hydrochloride] |
| 5.52 to 6.00 | ≤ 5.52 | 5.52 to 6.00 | O=C(/C=C/c1cccc(/C=C/C(=O)N2C[C@@H]3C[C@H]2CN3c2ccc(Cl)cc2)n1)NO [Example 41, (E)-3-(6-{(E)-3-[5-(4-Chloro-phenyl)-(1S,4S)-2,5-diaza-bicyclo[2.2.1]hept-2-yl]-3-oxo-propenyl}-pyridin-2-yl)-N-hydroxy-acrylamide trifluoroacetate] |
| 5.52 to 6.00 | 5.52 to 6.00 | ≥ 6.00 | CC(C)c1ccc(N2CCN(C(=O)/C=C/c3cccc(/C=C/C(=O)NO)n3)CC2)cc1 [Example 49, (E)-N-Hydroxy-3-(6-{(E)-3-[4-(4-isopropyl-phenyl)-piperazin-1-yl]-3-oxo-propenyl}-pyridin-2-yl)-acrylamide hydrochloride] |
| 5.52 to 6.00 | ≤ 5.52 | 5.52 to 6.00 | CC(C)(C)c1ccc(N2CCN(C(=O)/C=C/c3cccc(/C=C/C(=O)NO)n3)CC2)cc1 [Example 50, (E)-3-(6-{(E)-3-[4-(4-tert-Butyl-phenyl)-piperazin-1-yl]-3-oxo-propenyl}-pyridin-2-yl)-N-hydroxy-acrylamide hydrochloride] |
| ≤ 5.52 | ≤ 5.52 | ≤ 5.52 | CS(=O)(=O)c1ccc(N2CCN(C(=O)/C=C/c3cccc(/C=C/C(=O)NO)n3)CC2)cc1 [Example 51, (E)-N-Hydroxy-3-(6-{(E)-3-[4-(4-methanesulfonyl-phenyl)-piperazin-1-yl]-3-oxo-propenyl}-pyridin-2-yl)-acrylamide hydrochloride] |
| ≥ 6.00 | ≥ 6.00 | ≥ 6.00 | O=C(/C=C/c1cccc(/C=C/C(=O)N2CCCc3ccccc32)n1)NO [Example 55, (E)-3-{6-[(E)-3-(3,4-Dihydro-2H-quinolin-1-yl)-3-oxo-propenyl]-pyridin-2-yl}-N-hydroxy-acrylamide trifluoroacetate] |
| ≥ 6.00 | 5.52 to 6.00 | ≥ 6.00 | O=C(/C=C/c1cccc(/C=C/C(=O)N2CCc3ccccc3C2)n1)NO [Example 58, (E)-3-{6-[(E)-3-(3,4-Dihydro-1H-isoquinolin-2-yl)-3-oxo-propenyl]-pyridin-2-yl}-N-hydroxy-acrylamide hydrochloride] |
| ≥ 6.00 | ≥ 6.00 | ≥ 6.00 | O=C(/C=C/c1cccc(/C=C/C(=O)N2CCC[C@@H](c3ccccc3)C2)n1)NO [Example 73, (E)-N-Hydroxy-3-{6-[(E)-3-oxo-3-((S)-3-phenyl-piperidin-1-yl)-propenyl]-pyridin-2-yl}-acrylamide hydrochloride] |
| ≥ 6.00 | ≥ 6.00 | ≥ 6.00 | O=C(/C=C/c1cccc(/C=C/C(=O)N2CCCC(c3ccccc3)C2)n1)NO (stereo not drawn) [Example 74, (E)-N-Hydroxy-3-{6-[(E)-3-oxo-3-((12)-3-phenyl-piperidin-1-yl)-propenyl]-pyridin-2-yl}-acrylamide hydrochloride] |
